{"source": "BindingDB's records for doi:10.1021/jm9704863", "about": "(Cor Therapeutics, 1998)"}
{"molecular_target": "Integrin alpha-IIb/beta-3 (Homo sapiens, UniProt P08514+P05106)", "sequence (P05106 27-788 limits assumed)": "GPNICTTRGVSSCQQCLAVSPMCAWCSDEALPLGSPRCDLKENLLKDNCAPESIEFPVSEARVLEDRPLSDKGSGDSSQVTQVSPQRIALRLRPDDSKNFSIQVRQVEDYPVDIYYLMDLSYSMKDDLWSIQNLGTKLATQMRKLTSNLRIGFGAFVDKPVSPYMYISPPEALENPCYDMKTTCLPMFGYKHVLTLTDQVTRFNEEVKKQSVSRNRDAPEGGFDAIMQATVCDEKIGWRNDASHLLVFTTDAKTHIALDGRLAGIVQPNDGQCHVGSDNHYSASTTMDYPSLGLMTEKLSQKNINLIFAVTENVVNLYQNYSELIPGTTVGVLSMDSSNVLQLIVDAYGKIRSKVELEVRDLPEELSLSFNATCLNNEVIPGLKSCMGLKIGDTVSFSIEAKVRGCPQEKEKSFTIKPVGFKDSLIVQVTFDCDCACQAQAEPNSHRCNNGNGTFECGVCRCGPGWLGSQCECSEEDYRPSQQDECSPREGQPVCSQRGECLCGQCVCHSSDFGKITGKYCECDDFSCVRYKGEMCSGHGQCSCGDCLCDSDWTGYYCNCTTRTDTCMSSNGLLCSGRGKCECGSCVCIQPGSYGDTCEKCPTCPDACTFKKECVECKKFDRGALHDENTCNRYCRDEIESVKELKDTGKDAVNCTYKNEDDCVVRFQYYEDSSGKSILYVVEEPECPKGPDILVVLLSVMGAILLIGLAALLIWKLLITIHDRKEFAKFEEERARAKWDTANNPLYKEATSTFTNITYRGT", "sequence (P08514 32-887 limits assumed)": "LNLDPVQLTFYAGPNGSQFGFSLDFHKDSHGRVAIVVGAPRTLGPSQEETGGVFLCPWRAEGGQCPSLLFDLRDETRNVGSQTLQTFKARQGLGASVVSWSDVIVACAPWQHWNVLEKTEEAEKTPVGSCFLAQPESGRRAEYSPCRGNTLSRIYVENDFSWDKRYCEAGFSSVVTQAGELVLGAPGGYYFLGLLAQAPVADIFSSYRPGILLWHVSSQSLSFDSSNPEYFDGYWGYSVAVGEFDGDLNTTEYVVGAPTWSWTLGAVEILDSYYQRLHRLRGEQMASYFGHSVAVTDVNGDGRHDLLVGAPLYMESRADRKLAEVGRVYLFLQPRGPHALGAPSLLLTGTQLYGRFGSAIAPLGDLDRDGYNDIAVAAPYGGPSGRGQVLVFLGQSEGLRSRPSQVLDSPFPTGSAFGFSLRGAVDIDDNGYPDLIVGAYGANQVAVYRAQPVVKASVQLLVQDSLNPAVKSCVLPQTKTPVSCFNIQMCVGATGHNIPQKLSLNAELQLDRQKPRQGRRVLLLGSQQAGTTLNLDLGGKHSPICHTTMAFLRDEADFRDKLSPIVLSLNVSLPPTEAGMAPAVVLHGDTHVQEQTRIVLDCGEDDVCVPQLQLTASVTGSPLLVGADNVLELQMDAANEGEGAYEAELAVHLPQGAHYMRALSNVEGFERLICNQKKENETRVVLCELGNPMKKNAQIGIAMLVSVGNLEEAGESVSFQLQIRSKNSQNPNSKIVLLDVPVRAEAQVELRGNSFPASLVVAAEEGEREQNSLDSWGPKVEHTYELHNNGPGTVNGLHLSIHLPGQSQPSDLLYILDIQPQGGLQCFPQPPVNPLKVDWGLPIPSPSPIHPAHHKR", "sequence (P08514 891-1039 limits assumed)": "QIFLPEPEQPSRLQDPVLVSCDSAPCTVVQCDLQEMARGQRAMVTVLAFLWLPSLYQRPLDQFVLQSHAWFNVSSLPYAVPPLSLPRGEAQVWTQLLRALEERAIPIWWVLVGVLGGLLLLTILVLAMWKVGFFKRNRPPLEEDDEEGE", "assay": "Inhibition of platelet aggregation induced by 20 uM adenosine 5'-diphosphate (ADP) in human platelet rich plasma (h-PRP).", "units": {"IC50": "nM"}}
{"smiles": "CC(C)(NC(=O)c1cc2cc(C(=N)N)ccc2[nH]1)C(=O)NC(CC(=O)O)c1ccccc1", "note": "(configuration not stated) [3-{2-[(5-Carbamimidoyl-1H-indole-2-carbonyl)-amino]-2-methyl-propionylamino}-3-phenyl-propionic acid]", "IC50": 250000}
{"smiles": "N=C(N)c1ccc2oc(C(=O)NCCC(=O)NC(CC(=O)O)c3ccccc3)cc2c1", "note": "(configuration not stated) [3-{3-[(5-Carbamimidoyl-benzofuran-2-carbonyl)-amino]-propionylamino}-3-phenyl-propionic acid]", "IC50": 250}
{"smiles": "N=C(N)c1ccc2oc(C(=O)N3CCCC(C(=O)NC(CC(=O)O)c4ccccc4)C3)cc2c1", "note": "(configuration not stated) [3-{[1-(5-Carbamimidoyl-benzofuran-2-carbonyl)-piperidine-3-carbonyl]-amino}-3-phenyl-propionic acid]", "IC50": 250}
{"smiles": "N=C(N)c1ccc2[nH]c(C(=O)N3CCC[C@H]3C(=O)NC(CC(=O)O)c3ccccc3)cc2c1", "note": "(stereo partly drawn) [3-{[(S)-1-(5-Carbamimidoyl-1H-indole-2-carbonyl)-pyrrolidine-2-carbonyl]-amino}-3-phenyl-propionic acid]", "IC50": 5000}
{"smiles": "N=C(N)c1ccc2oc(C(=O)NCCC(=O)NC(CC(=O)O)C(F)(F)F)cc2c1", "note": "(configuration not stated) [3-{3-[(5-Carbamimidoyl-benzofuran-2-carbonyl)-amino]-propionylamino}-4,4,4-trifluoro-butyric acid]", "IC50": 250}
{"smiles": "C#CC(CC(=O)O)NC(=O)CCNC(=O)c1cc2cc(C(=N)N)ccc2o1", "note": "(configuration not stated) [3-{3-[(5-Carbamimidoyl-benzofuran-2-carbonyl)-amino]-propionylamino}-pent-4-ynoic acid]", "IC50": 300}
{"smiles": "N=C(N)c1ccc2c(C(=O)NCCC(=O)NC(CC(=O)O)c3ccccc3)[nH]nc2c1", "note": "(configuration not stated) [3-{3-[(6-Carbamimidoyl-1H-indazole-3-carbonyl)-amino]-propionylamino}-3-phenyl-propionic acid]", "IC50": 630}
{"smiles": "N=C(N)c1ccc2cc(C(=O)NCCC(=O)NC(CC(=O)O)c3ccccc3)[nH]c2c1", "note": "(configuration not stated) [3-{3-[(6-Carbamimidoyl-1H-indole-2-carbonyl)-amino]-propionylamino}-3-phenyl-propionic acid]", "IC50": 1350}
{"smiles": "CN(CCC(=O)NC(CC(=O)O)c1ccccc1)C(=O)c1cc2cc(C(=N)N)ccc2o1", "note": "(configuration not stated) [3-{3-[(5-Carbamimidoyl-benzofuran-2-carbonyl)-methyl-amino]-propionylamino}-3-phenyl-propionic acid]", "IC50": 250}
{"smiles": "CN(CC(=O)NC(CC(=O)O)c1ccccc1)C(=O)c1cc2cc(C(=N)N)ccc2[nH]1", "note": "(configuration not stated) [3-{2-[(5-Carbamimidoyl-1H-indole-2-carbonyl)-methyl-amino]-acetylamino}-3-phenyl-propionic acid]", "IC50": 25000}
{"smiles": "N=C(N)c1ccc2oc(C(=O)NCCC(=O)NC(CC(=O)O)c3cc(F)cc(F)c3)cc2c1", "note": "(configuration not stated) [3-{3-[(5-Carbamimidoyl-benzofuran-2-carbonyl)-amino]-propionylamino}-3-(3,5-difluoro-phenyl)-propionic acid]", "IC50": 350}
{"smiles": "N=C(N)c1ccc2[nH]c(C(=O)NCCC(=O)NC(CC(=O)O)c3ccccc3)cc2c1", "note": "(configuration not stated) [3-{3-[(5-Carbamimidoyl-1H-indole-2-carbonyl)-amino]-propionylamino}-3-phenyl-propionic acid]", "IC50": 8000}
{"smiles": "N=C(N)c1ccc2c(C(=O)NCCC(=O)NC(CC(=O)O)c3ccccc3)c[nH]c2c1", "note": "(configuration not stated) [3-{3-[(6-Carbamimidoyl-1H-indole-3-carbonyl)-amino]-propionylamino}-3-phenyl-propionic acid]", "IC50": 2200}
{"smiles": "N=C(N)c1ccc2oc(C(=O)NCCC(=O)NC(CCc3c[nH]c4ccccc34)CC(=O)O)cc2c1", "note": "(configuration not stated) [3-{3-[(5-Carbamimidoyl-benzofuran-2-carbonyl)-amino]-propionylamino}-5-(1H-indol-3-yl)-pentanoic acid]", "IC50": 600}
{"smiles": "N=C(N)c1ccc2[nH]c(C(=O)NC(CC(=O)NC(CC(=O)O)c3ccccc3)C(F)(F)F)cc2c1", "note": "(configuration not stated) [3-{3-[(5-Carbamimidoyl-1H-indole-2-carbonyl)-amino]-4,4,4-trifluoro-butyrylamino}-3-phenyl-propionic acid]", "IC50": 50000}
{"smiles": "N=C(N)c1ccc2oc(C(=O)NCCC(=O)NC[C@H](N)C(=O)O)cc2c1", "note": "[(S)-2-Amino-3-{3-[(5-carbamimidoyl-benzofuran-2-carbonyl)-amino]-propionylamino}-propionic acid]", "IC50": 200}
{"smiles": "CC(CC(=O)NC(CC(=O)O)c1ccccc1)NC(=O)c1cc2cc(C(=N)N)ccc2[nH]1", "note": "(configuration not stated) [3-{3-[(5-Carbamimidoyl-1H-indole-2-carbonyl)-amino]-butyrylamino}-3-phenyl-propionic acid]", "IC50": 5000}
{"smiles": "N=C(N)c1ccc2oc(C(=O)N3CCC[C@@H]3C(=O)NC(CC(=O)O)c3ccccc3)cc2c1", "note": "(stereo partly drawn) [3-{[(R)-1-(5-Carbamimidoyl-benzofuran-2-carbonyl)-pyrrolidine-2-carbonyl]-amino}-3-phenyl-propionic acid]", "IC50": 2000}
{"smiles": "COc1ccc(C(CC(=O)O)NC(=O)CCNC(=O)c2cc3cc(C(=N)N)ccc3o2)cc1OC", "note": "(configuration not stated) [3-{3-[(5-Carbamimidoyl-benzofuran-2-carbonyl)-amino]-propionylamino}-3-(3,4-dimethoxy-phenyl)-propionic acid]", "IC50": 300}
{"smiles": "CCCCS(=O)(=O)NC(CNC(=O)CCNC(=O)c1[nH]nc2cc(C(=N)N)ccc12)C(=O)O", "note": "(configuration not stated) [2-(Butane-1-sulfonylamino)-3-{3-[(6-carbamimidoyl-1H-indazole-3-carbonyl)-amino]-propionylamino}-propionic acid]", "IC50": 53}
{"smiles": "N=C(N)c1ccc2oc(C(=O)NCCC(=O)NC(CC(=O)O)c3cc(F)ccc3F)cc2c1", "note": "(configuration not stated) [3-{3-[(5-Carbamimidoyl-benzofuran-2-carbonyl)-amino]-propionylamino}-3-(2,5-difluoro-phenyl)-propionic acid]", "IC50": 300}
{"smiles": "N=C(N)c1ccc2oc(C(=O)NCCC(=O)NC(CC(=O)O)c3cccnc3)cc2c1", "note": "(configuration not stated) [3-{3-[(5-Carbamimidoyl-benzofuran-2-carbonyl)-amino]-propionylamino}-3-pyridin-3-yl-propionic acid]", "IC50": 200}
{"smiles": "CCCCS(=O)(=O)N[C@@H](CNC(=O)CCNC(=O)c1cc2cc(C(=N)N)ccc2o1)C(=O)O", "note": "[(S)-2-(Butane-1-sulfonylamino)-3-{3-[(5-carbamimidoyl-benzofuran-2-carbonyl)-amino]-propionylamino}-propionic acid]", "IC50": 35}
{"smiles": "CN(CCC(=O)NC(CC(=O)O)c1ccccc1)C(=O)c1cc2cc(C(=N)N)ccc2[nH]1", "note": "(configuration not stated) [3-{3-[(5-Carbamimidoyl-1H-indole-2-carbonyl)-methyl-amino]-propionylamino}-3-phenyl-propionic acid]", "IC50": 5000}
{"smiles": "N=C(N)c1ccc2oc(C(=O)N3Cc4ccccc4CC3C(=O)NC(CC(=O)O)c3ccccc3)cc2c1", "note": "(configuration not stated) [3-{[2-(5-Carbamimidoyl-benzofuran-2-carbonyl)-1,2,3,4-tetrahydro-isoquinoline-3-carbonyl]-amino}-3-phenyl-propionic acid]", "IC50": 5000}
{"smiles": "N=C(N)c1ccc2[nH]c(C(=O)N3CCC(C(=O)NC(CC(=O)O)c4ccccc4)CC3)cc2c1", "note": "(configuration not stated) [3-{[1-(5-Carbamimidoyl-1H-indole-2-carbonyl)-piperidine-4-carbonyl]-amino}-3-phenyl-propionic acid]", "IC50": 25000}
{"smiles": "CCCCS(=O)(=O)NC(CNC(=O)CCNC(=O)c1cc2ccc(C(=N)N)cc2[nH]1)C(=O)O", "note": "(configuration not stated) [2-(Butane-1-sulfonylamino)-3-{3-[(6-carbamimidoyl-1H-indole-2-carbonyl)-amino]-propionylamino}-propionic acid]", "IC50": 55}
{"smiles": "N=C(N)c1ccc2[nH]c(C(=O)Nc3cccc(C(=O)NC(CC(=O)O)c4ccccc4)c3)cc2c1", "note": "(configuration not stated) [3-{3-[(5-Carbamimidoyl-1H-indole-2-carbonyl)-amino]-benzoylamino}-3-phenyl-propionic acid]", "IC50": 25000}
{"smiles": "N=C(N)c1ccc2[nH]c(C(=O)NCC(=O)NC(CC(=O)O)c3ccccc3)cc2c1", "note": "(configuration not stated) [3-{2-[(5-Carbamimidoyl-1H-indole-2-carbonyl)-amino]-acetylamino}-3-phenyl-propionic acid]", "IC50": 50000}
{"smiles": "N=C(N)c1ccc2oc(C(=O)NCCC(=O)NC(CC(=O)O)c3ccc(F)c(F)c3)cc2c1", "note": "(configuration not stated) [3-{3-[(5-Carbamimidoyl-benzofuran-2-carbonyl)-amino]-propionylamino}-3-(3,4-difluoro-phenyl)-propionic acid]", "IC50": 500}
{"molecular_target": "not listed separately", "assay": "Inhibition of 20 uM ADP-induced platelet aggregation in human platelet-rich plasma", "units": {"IC50": "nM"}}
{"smiles": "CN(C)c1cccc2c(S(=O)(=O)N[C@@H](CNC(=O)CCNC(=O)c3cc4cc(C(=N)N)ccc4o3)C(=O)O)cccc12", "note": "[(S)-3-{3-[(5-Carbamimidoyl-benzofuran-2-carbonyl)-amino]-propionylamino}-2-(5-dimethylamino-naphthalene-1-sulfonylamino)-propionic acid]", "IC50": 65}
{"smiles": "N=C(N)c1ccc2oc(C(=O)NCCC(=O)NC[C@H](NS(=O)(=O)c3ccc(I)cc3)C(=O)O)cc2c1", "note": "[(S)-3-{3-[(5-Carbamimidoyl-benzofuran-2-carbonyl)-amino]-propionylamino}-2-(4-iodo-benzenesulfonylamino)-propionic acid]", "IC50": 25}
